Inconclusive results and toxic doses are left out. How the source made its calls: active means survival T/C of 150% or more; inactive means T/C below 125% in these data.
Test system: CD2F1 mice, L1210 leukemia ip, survival T/C
Assay: NCI In Vivo Anticancer Drug Screen. Data for tumor model L1210 Leukemia (intraperitoneal) in CD2F1 (CDF1) mice
Details: higher = longer survival
Method in brief: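 Compound-dosed mice with transplantable tumor versus matched vehicle controls; endpoint ratio T/C reported.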

[1] = endpoint: mean survival time, dose: 100.0 mg/kg/injection, schedule: Q04DX003 (ip), vehicle: saline with Tween-80
[2] = endpoint: median survival time, dose: 12.5 mg/kg/injection, schedule: Q01DX005 (ip), vehicle: saline
[3] = endpoint: median survival time, dose: 25.0 mg/kg/injection, schedule: Q01DX005 (ip), vehicle: saline
[4] = endpoint: median survival time, dose: 50.0 mg/kg/injection, schedule: Q01DX005 (ip), vehicle: saline
[5] = endpoint: median survival time, dose: 100.0 mg/kg/injection, schedule: Q01DX005 (ip), vehicle: saline
[6] = endpoint: median survival time, dose: 200.0 mg/kg/injection, schedule: Q01DX005 (ip), vehicle: saline
[7] = endpoint: mean survival time, dose: 100.0 mg/kg/injection, schedule: Q01DX009 (ip), vehicle: saline with Tween-80
[8] = endpoint: mean survival time, dose: 200.0 mg/kg/injection, schedule: Q01DX009 (ip), vehicle: saline with Tween-80
[9] = endpoint: mean survival time, dose: 400.0 mg/kg/injection, schedule: Q01DX009 (ip), vehicle: saline with Tween-80
[10] = endpoint: mean survival time, dose: 100.0 mg/kg/injection, schedule: Q01DX001 (ip), vehicle: saline with Tween-80
[11] = endpoint: mean survival time, dose: 400.0 mg/kg/injection, schedule: Q01DX001 (ip), vehicle: saline with Tween-80
[12] = endpoint: mean survival time, dose: 200.0 mg/kg/injection, schedule: Q04DX003 (ip), vehicle: saline with Tween-80
[13] = endpoint: mean survival time, dose: 400.0 mg/kg/injection, schedule: Q04DX003 (ip), vehicle: saline with Tween-80
[14] = endpoint: mean survival time, dose: 50.0 mg/kg/injection, schedule: Q04DX003 (ip), vehicle: saline with Tween-80

Measured: T/C

O=C(Nc1cccnc1)c1ccccc1
inactive: endpoint: mean survival time, dose: 6.25 mg/kg/injection, schedule: Q01DX009 (ip), vehicle: saline with Tween-80 102 % of control | endpoint: mean survival time, dose: 12.5 mg/kg/injection, schedule: Q01DX009 (ip), vehicle: saline with Tween-80 102 % of control | endpoint: mean survival time, dose: 25.0 mg/kg/injection, schedule: Q01DX009 (ip), vehicle: saline with Tween-80 113 % of control

COc1cccc(CN2CCN(N=O)CC2)c1
inactive: endpoint: mean survival time, dose: 12.5 mg/kg/injection, schedule: Q01DX009 (ip), vehicle: Klucel (hydroxypropylcellulose) (HPC) 98 % of control | endpoint: mean survival time, dose: 25.0 mg/kg/injection, schedule: Q01DX009 (ip), vehicle: Klucel (hydroxypropylcellulose) (HPC) 93 % of control | endpoint: mean survival time, dose: 50.0 mg/kg/injection, schedule: Q01DX009 (ip), vehicle: Klucel (hydroxypropylcellulose) (HPC) 103 % of control | endpoint: mean survival time, dose: 100.0 mg/kg/injection, schedule: Q01DX009 (ip), vehicle: Klucel (hydroxypropylcellulose) (HPC) 103 % of control | endpoint: mean survival time, dose: 200.0 mg/kg/injection, schedule: Q01DX009 (ip), vehicle: Klucel (hydroxypropylcellulose) (HPC) 101 % of control | endpoint: mean survival time, dose: 400.0 mg/kg/injection, schedule: Q01DX009 (ip), vehicle: Klucel (hydroxypropylcellulose) (HPC) 93 % of control

CCN(CC)CCNC(=O)C(O)C1CCCCC1 (centres undefined)
inactive: endpoint: mean survival time, dose: 75.0 mg/kg/injection, schedule: Q01DX001 (ip), vehicle: other 90 % of control

Nc1nc(-c2ccccc2)cs1
inactive: [1] 105 % of control

CC(=O)OC1(c2ccccc2)CC(=O)C=C1c1ccccc1 (centres undefined)
inactive: endpoint: mean survival time, dose: 25.0 mg/kg/injection, schedule: Q04DX002 (ip), vehicle: saline with Tween-80 102 % of control | endpoint: mean survival time, dose: 50.0 mg/kg/injection, schedule: Q04DX002 (ip), vehicle: saline with Tween-80 91 % of control | endpoint: mean survival time, dose: 100.0 mg/kg/injection, schedule: Q04DX002 (ip), vehicle: saline with Tween-80 87 % of control

O=c1c(Br)cnc2ccccn12
inactive: endpoint: mean survival time, dose: 12.5 mg/kg/injection, schedule: Q01DX001 (ip), vehicle: saline 107 % of control | endpoint: mean survival time, dose: 25.0 mg/kg/injection, schedule: Q01DX001 (ip), vehicle: saline 98 % of control | endpoint: mean survival time, dose: 50.0 mg/kg/injection, schedule: Q01DX001 (ip), vehicle: saline 102 % of control

COc1ccc(-n2c(C)nc3c(cnn3C3OC(CO)C(O)C3O)c2=O)cc1 (centres undefined)
inactive: [2] 103 % of control | [3] 102 % of control | [4] 105 % of control | [5] 111 % of control | [6] 103 % of control

Nc1ccccc1NS(=O)(=O)c1ccc(Cl)cc1
inactive: [7] 95 % of control | [8] 101 % of control | [9] 106 % of control

O=C(O)C(Br)C(Br)c1ccccc1 (centres undefined)
inactive: [7] 92 % of control | [8] 93 % of control | [9] 93 % of control

CCOC(=O)/C=C/SCCCC(=O)O
inactive: [10] 100 % of control | endpoint: mean survival time, dose: 200.0 mg/kg/injection, schedule: Q01DX001 (ip), vehicle: saline with Tween-80 105 % of control | [11] 95 % of control

Clc1ccc(N=Cc2ccc3c(c2)OCO3)cc1
inactive: endpoint: mean survival time, dose: 100.0 mg/kg/injection, schedule: Q04DX003 (ip), vehicle: other 91 % of control | endpoint: mean survival time, dose: 200.0 mg/kg/injection, schedule: Q04DX003 (ip), vehicle: other 96 % of control | endpoint: mean survival time, dose: 400.0 mg/kg/injection, schedule: Q04DX003 (ip), vehicle: other 100 % of control

COC1=c2\cccc\c2=N\C(OC)=c2\cccc\c2=N\1
inactive: [1] 101 % of control | [12] 101 % of control | [13] 98 % of control

FC1(F)C(I)=C(I)C1(F)F
inactive: endpoint: mean survival time, dose: 75.0 mg/kg/injection, schedule: Q01DX001 (ip), vehicle: saline 97 % of control | endpoint: mean survival time, dose: 150.0 mg/kg/injection, schedule: Q01DX001 (ip), vehicle: saline 103 % of control | endpoint: mean survival time, dose: 300.0 mg/kg/injection, schedule: Q01DX001 (ip), vehicle: saline 105 % of control

O=C1C2C3C=CC(C3)C2C(=O)N1O (centres undefined)
inactive: endpoint: mean survival time, dose: 50.0 mg/kg/injection, schedule: Q01DX001 (ip), vehicle: carboxymethylcellulose (CMC) 106 % of control | endpoint: mean survival time, dose: 100.0 mg/kg/injection, schedule: Q01DX001 (ip), vehicle: carboxymethylcellulose (CMC) 100 % of control | endpoint: mean survival time, dose: 200.0 mg/kg/injection, schedule: Q01DX001 (ip), vehicle: carboxymethylcellulose (CMC) 112 % of control | endpoint: mean survival time, dose: 400.0 mg/kg/injection, schedule: Q01DX001 (ip), vehicle: carboxymethylcellulose (CMC) 96 % of control

COCCOCCN1CCN(CCCN2c3ccccc3Sc3ccc(C(F)(F)F)cc32)CC1
inactive: endpoint: mean survival time, dose: 37.5 mg/kg/injection, schedule: Q04DX003 (ip), vehicle: saline 113 % of control | endpoint: mean survival time, dose: 50.0 mg/kg/injection, schedule: Q04DX003 (ip), vehicle: saline 121 % of control

O=C(O)CCc1ccccc1CC(=O)O
inactive: [1] 98 % of control | [12] 98 % of control | [13] 97 % of control

Cc1ccc(C2=C(O)C(=O)C(c3ccc(C)cc3)C2=O)cc1 (centres undefined)
inactive: [1] 93 % of control | [12] 96 % of control

O=C1C=CC(c2ccccc2)(c2ccccc2)C=C1
inactive: [10] 93 % of control | [11] 86 % of control

C=CCNC(=S)N/N=C\c1cc(OC)c(OC)c(OC)c1
inactive: [7] 93 % of control | [8] 97 % of control | [9] 106 % of control

CC(=O)OCc1ccc(Cl)cc1Cl
inactive: [7] 98 % of control | [8] 104 % of control | [9] 95 % of control

N#Cc1c(Cl)cc(C2(OC(=O)c3ccc([N+](=O)[O-])cc3)C3C=CC2CC3)cc1Cl (centres undefined)
inactive: endpoint: median survival time, dose: 25.0 mg/kg/injection, schedule: Q04DX002 (ip), vehicle: saline with Tween-80 100 % of control | endpoint: median survival time, dose: 50.0 mg/kg/injection, schedule: Q04DX002 (ip), vehicle: saline with Tween-80 87 % of control | endpoint: median survival time, dose: 100.0 mg/kg/injection, schedule: Q04DX002 (ip), vehicle: saline with Tween-80 100 % of control | endpoint: median survival time, dose: 200.0 mg/kg/injection, schedule: Q04DX002 (ip), vehicle: saline with Tween-80 100 % of control

Cc1ccc(S(=O)(=O)[n+]2ccccc2)cc1
inactive: endpoint: mean survival time, dose: 100.0 mg/kg/injection, schedule: Q04DX003 (ip), vehicle: saline 97 % of control | endpoint: mean survival time, dose: 200.0 mg/kg/injection, schedule: Q04DX003 (ip), vehicle: saline 103 % of control | endpoint: mean survival time, dose: 400.0 mg/kg/injection, schedule: Q04DX003 (ip), vehicle: saline 95 % of control

COc1nc(NC2OC(CO)C(O)C(O)C2O)c(I)c(=O)[nH]1 (centres undefined)
inactive: [2] 109 % of control | [3] 107 % of control | [4] 100 % of control | [5] 101 % of control | [6] 100 % of control

O=C1C(Cl)=C(SCc2ccccc2)C(=O)c2ccccc21
inactive: endpoint: mean survival time, dose: 25.0 mg/kg/injection, schedule: Q04DX003 (ip), vehicle: saline with Tween-80 91 % of control | [14] 91 % of control

CCCCNC(=O)C1CC2c3cccc4[nH]cc(c34)CC2N(C)C1 (centres undefined)
inactive: [14] 88 % of control | [1] 91 % of control

COC(=O)C1OC([n+]2ccccc2)C(OC(C)=O)C(OC(C)=O)C1OC(C)=O (centres undefined)
inactive: [2] 103 % of control | [3] 107 % of control | [4] 100 % of control | [5] 107 % of control | [6] 103 % of control

N#CCCN(N=O)C(=O)Nc1ccccc1
inactive: endpoint: mean survival time, dose: 6.25 mg/kg/injection, schedule: Q01DX Z (ip), vehicle: carboxymethylcellulose (CMC) 110 % of control | endpoint: mean survival time, dose: 12.5 mg/kg/injection, schedule: Q01DX Z (ip), vehicle: carboxymethylcellulose (CMC) 115 % of control | endpoint: mean survival time, dose: 75.0 mg/kg/injection, schedule: Q01DX Z (ip), vehicle: carboxymethylcellulose (CMC) 102 % of control

CCCCCC(=O)C(CCCC)C(=O)Nc1ccccc1 (centres undefined)
inactive: [1] 94 % of control | [12] 96 % of control | [13] 91 % of control

CCCCCCCCCCCCCC(CCCC)CCCCCCCC (centres undefined)
inactive: endpoint: mean survival time, dose: 100.0 mg/kg/injection, schedule: Q01DX001 (ip), vehicle: saline sonified 107 % of control | endpoint: mean survival time, dose: 200.0 mg/kg/injection, schedule: Q01DX001 (ip), vehicle: saline sonified 95 % of control | endpoint: mean survival time, dose: 400.0 mg/kg/injection, schedule: Q01DX001 (ip), vehicle: saline sonified 102 % of control

COc1cc(C)c2c(c1C=O)Oc1c(c(C)c(O)c3c1C(O)OC3=O)OC2=O (centres undefined)
inactive: endpoint: mean survival time, dose: 3.12 mg/kg/injection, schedule: Q01DX009 (ip), vehicle: saline 94 % of control | endpoint: mean survival time, dose: 6.25 mg/kg/injection, schedule: Q01DX009 (ip), vehicle: saline 92 % of control | endpoint: mean survival time, dose: 12.5 mg/kg/injection, schedule: Q01DX009 (ip), vehicle: saline 100 % of control | endpoint: mean survival time, dose: 25.0 mg/kg/injection, schedule: Q01DX009 (ip), vehicle: saline 92 % of control | endpoint: mean survival time, dose: 50.0 mg/kg/injection, schedule: Q01DX009 (ip), vehicle: saline 97 % of control

From PubChem BioAssay AID256 (DTP/NCI, 2004)
